The target of the experiment is recombinant eIF4E (Homo sapiens (Human), UniProt P06730). In words: Fluorescence polarization competition assay for eIF4E binding potency. A digest of the protocol: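 IC50 values reflect 50% displacement of 20 nM EDA-m7GDP-ATTO-550 from 75 nM eIF4E, measured by fluorescence polarization after 30 min at room temperature. Buffer: 20 mM Tris pH 7.5, 100 mM NaCl, 1 mM DTT, 0.02% Tween-20; 1% DMSO.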
(Fluorescence polarisation rises when a labelled molecule tumbles more slowly, as on binding a larger partner.)

Setting [1] is: inhibition of eIF4E/EDA-m7GDP-ATTO-550 binding, calculated IC50 values, Table 4B, read-out: IC50.
Where [2] appears, read: fluorescence polarization competition, 75 nM recombinant eIF4E, 20 nM EDA-m7GDP-ATTO-550, IC50 class, read-out: elF4E FP.
Setting [3] is: inhibition of eIF4E/EDA-m7GDP-ATTO-550 binding by 50%, Table 4B calculated values, read-out: IC50.

Read-outs that look alike come from different tables or passages of the source.

Sequence of recombinant eIF4E (P06730 whole entry): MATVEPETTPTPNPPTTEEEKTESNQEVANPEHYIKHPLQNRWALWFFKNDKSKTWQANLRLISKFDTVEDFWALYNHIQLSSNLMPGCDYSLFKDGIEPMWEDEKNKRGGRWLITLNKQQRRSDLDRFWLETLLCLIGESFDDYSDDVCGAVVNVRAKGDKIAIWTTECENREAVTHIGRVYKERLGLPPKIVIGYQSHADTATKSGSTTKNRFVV

As for `Cc1nc2cnc(N3CC4(C3)CN(C3CC(F)(F)C3)C4)c(C#N)c2c(=O)n1CCOc1ccc(Cl)cc1-c1ccnc2c(C(=O)O)csc12` [compound 1475], the IC50 under setting [1] is 7.2 nM.

With `Cc1cc(-c2cc(Cl)ccc2OCCn2c(C)nc3c(C(F)(F)F)cc(N4CCN(C)CC4)nc3c2=O)c2scc(C(=O)O)c2n1` [compound 677], the IC50 is under 50 nM under setting [2] and 5.44 nM under setting [3].

As to `Cc1cc(-c2cc(Cl)ccc2OCCn2c(C)nc3cc(C(F)(F)F)c(CN(C)C)c(C#N)c3c2=O)c2scc(C(=O)O)c2n1` [compound 559], the IC50 under setting [2] is under 50 nM and the IC50 under setting [3] was 8.69 nM.

In the case of `Cc1nc2ccc(CCN(C)C)c(C#N)c2c(=O)n1CCOc1ccc(Cl)cc1-c1ccc(C(F)(F)F)c2c(C(=O)O)csc12` [compound 578], the IC50 was under 50 nM under setting [2] and 32 nM under setting [3]. Consider `CCN(c1ncc2nc(C)n(CC#Cc3ccc(Cl)cc3-c3ccnc4c(C(=O)NS(=O)(=O)CCC#N)csc34)c(=O)c2c1C#N)C1CCN(C2COC2)CC1` [compound 1736], for which the IC50 under setting [1] was 12.6 nM.

`COc1ccc(-c2cc(Cl)ccc2OCCn2c(C)nc3c(C)ncc(C#N)c3c2=O)c2scc(C(=O)O)c12` [compound 721]: the IC50 was under 50 nM under setting [2] and 20.6 nM under setting [3]. In the same order, the values of `CC(COc1ccc(Cl)cc1-c1cccc(C(=O)O)c1)n1cnc2cnc(C#N)cc2c1=O` (stereo not shown) [compound 129] are over 1000 nM and 3100 nM. Take `Cc1nc2cnc(N(C)C3CCN(C4CC(F)(F)C4)CC3)c(C#N)c2c(=O)n1CCOc1ccc(Cl)cc1-c1ccnc2c(C(=O)O)csc12` [compound 1477]: under setting [1], the IC50 was 18.1 nM.

For the compound `Cc1nc2cnc(N(C)C34CCC(N(C)CCF)(CC3)C4)c(C#N)c2c(=O)n1CC#Cc1ccc(Cl)cc1-c1ccnc2c(C(=O)O)csc12` [compound 1106], the IC50 runs as follows: under setting [2], under 50 nM; under setting [3], 17.4 nM. With `Cc1nc2cc(OC(F)(F)F)c(Cl)c(C#N)c2c(=O)n1CCOc1ccc(Cl)cc1-c1ccnc2c(C(=O)O)csc12` [compound 542], the IC50 is under 50 nM under setting [2] and 20.2 nM under setting [3]. Turning to `Cc1cc(-c2cc(Cl)ccc2OCCn2c(C)nc3cnc(N(C)c4ccccc4)c(C#N)c3c2=O)c2scc(C(=O)O)c2n1` [compound 986], the IC50 under setting [2] is under 50 nM and the IC50 under setting [3] was 16.9 nM. As for `Cc1nc2cc(C(F)(F)F)c(CN3CCN(C)CC3)c(C#N)c2c(=O)n1CCOc1ccc(Cl)cc1-c1ccnc2ccsc12` [compound 1256], the IC50 under setting [1] was 24.7 nM. On to `Cc1cc(-c2cc(Cl)ccc2OCCn2c(C)nc3cc(Cl)c(C4CCC4)c(C#N)c3c2=O)c2scc(C(=O)O)c2n1` [compound 1047], for which the IC50 by setting is: under setting [2], under 50 nM; under setting [3], 21.2 nM.

In the case of `Cc1cc(-c2cc(Cl)ccc2OCCn2c(C)nc3cnc(C(F)F)c(C#N)c3c2=O)c2scc(C(=O)O)c2n1` [compound 914], the IC50 under setting [2] was under 50 nM and the IC50 under setting [3] was 20.7 nM. Take `Cc1cc(-c2cc(Cl)ccc2OCCn2c(C)nc3c(C)nc(N4CCC(O)C4)c(C#N)c3c2=O)c2scc(C(=O)O)c2n1` (stereo not shown) [compound 1149]: the IC50 by setting is: under setting [2], under 50 nM; under setting [3], 4.19 nM. Turning to `Cc1nc2cnc(N3CCN(CCF)C(C)(C)C3)c(C#N)c2c(=O)n1CCOc1ccc(Cl)cc1-c1ccnc2c(C(=O)O)csc12` [compound 1333], the IC50 under setting [1] was 26.2 nM. Regarding `Cc1nc2cnc(N(C)C3CCN(C(C)C(F)F)CC3)c(C#N)c2c(=O)n1CCOc1ccc(Cl)cc1-c1ccnc2c(C(=O)O)csc12` (stereo not shown) [compound 1662], the IC50 under setting [1] is 22.1 nM. In the case of `Cc1cc(-c2cc(Cl)ccc2OCCn2c(C)nc3cc4c(c(C#N)c3c2=O)CCC4)c2scc(C(=O)O)c2n1` [compound 748], the IC50 under setting [2] was under 50 nM and the IC50 under setting [3] was 16.3 nM. For `Cc1nc2cc(C(F)(F)F)cc(Cl)c2c(=O)n1CCOc1ccc(Cl)cc1-c1ccnc2c(C(=O)O)csc12` [compound 198], the IC50 is 50 to 1000 nM under setting [2] and 124 nM under setting [3]. Regarding `Cc1nc2cnc(N3CCN(C4CC4)CC3)c(C#N)c2c(=O)n1CCOc1ccc(Cl)cc1-c1ccnc2c(C(=O)O)csc12` [compound 1306], the IC50 under setting [1] was 38.9 nM. As to `Cc1ccc(F)c(-c2c(C(F)(F)F)cc3nc(C)n(CCOc4ccc(Cl)cc4-c4cc(C)nc5c(C(=O)O)csc45)c(=O)c3c2C#N)n1` [compound 434], the IC50 reads like this: under setting [2], under 50 nM; under setting [3], 7.76 nM.

Turning to `CCc1cc(-c2cc(Cl)ccc2OCCn2c(C)nc3c(N(C)C)nc(C4CC4)c(C#N)c3c2=O)c2scc(C(=O)O)c2n1` [compound 1199], the IC50 reads like this: under setting [2], under 50 nM; under setting [1], 18.2 nM. In the case of `COc1cc(-c2cc(Cl)ccc2OCCn2c(C)nc3cc(C(F)(F)F)cc(C#N)c3c2=O)c2scc(C(=O)O)c2n1` [compound 329], the IC50 by setting is: under setting [2], under 50 nM; under setting [3], 46.4 nM. As to `Cc1nc2cnc(N3CCN(CC(C)(C)C(F)(F)F)CC3)c(C#N)c2c(=O)n1CCOc1ccc(Cl)cc1-c1ccnc2c(C(=O)O)csc12` [compound 1472], the IC50 under setting [1] was 28.9 nM. Consider `Cc1nc2cc(C(F)(F)F)c(CN3CCOCC3)c(C#N)c2c(=O)n1CCOc1ccc(Cl)cc1-c1ccnc2c(C(=O)O)csc12` [compound 501], for which the IC50 is under 50 nM under setting [2] and 25.7 nM under setting [3]. On to `Cc1nc2cc(C(F)(F)F)c(N3CCN(C4CC(F)(F)C4)CC3)c(C#N)c2c(=O)n1CCOc1ccc(Cl)cc1-c1ccnc2c(C(=O)O)csc12` [compound 1292], for which the IC50 under setting [1] was 52.3 nM.

`Cc1nc2cc(C(F)(F)F)cc(C#N)c2c(=O)n1CCOc1ccc(Cl)cc1-c1cc(C2CC2)nc2c(C(=O)O)csc12` [compound 672]: the IC50 reads like this: under setting [2], 50 to 1000 nM; under setting [3], 106 nM.

For the compound `Cc1cc(-c2c(Cl)cc3nc(C)n(CCOc4ccc(Cl)cc4-c4cc(C)nc5c(C(=O)O)csc45)c(=O)c3c2C#N)cc(C)n1` [compound 396], the IC50 runs as follows: under setting [2], under 50 nM; under setting [3], 18.1 nM. For the compound `CCc1cc(-c2cc(Cl)ccc2OCCn2c(C)nc3cc(C(F)(F)F)c(C4=CCN(C)CC4)c(C#N)c3c2=O)c2scc(C(=O)O)c2n1` [compound 1088], the IC50 is 50 to 1000 nM under setting [2] and 53.3 nM under setting [3]. Consider `Cc1nc2cnc(N(C)C3CCN(CCC(C)(F)F)CC3)c(C#N)c2c(=O)n1CC#Cc1ccc(Cl)cc1-c1ccnc2c(C(=O)O)csc12` [compound 1190], for which the IC50 by setting is: under setting [2], under 50 nM; under setting [1], 7.3 nM. As to `COc1ccc(-c2c(Cl)cc3nc(C)n(CCOc4ccc(Cl)cc4-c4cc(C)nc5c(C(=O)O)csc45)c(=O)c3c2C#N)cn1` [compound 1061], the IC50 reads like this: under setting [2], under 50 nM; under setting [3], 8.54 nM.

Take `Cc1cc(-c2cc(Cl)ccc2OCCn2c(C)nc3cc(C(F)(F)F)c(N4CC(O)C4)nc3c2=O)c2scc(C(=O)O)c2n1` [compound 797]: the IC50 under setting [2] is under 50 nM and the IC50 under setting [3] is 6.79 nM. `Cc1nc2cnc(N3CC4(C3)CN(C3COC3)C4)c(C#N)c2c(=O)n1CC#Cc1ccc(Cl)cc1-c1ccnc2c(C(=O)O)csc12` [compound 1322]: under setting [1], the IC50 is 11.2 nM.

As for `Cc1nc2cc(C(F)(F)F)cc(C#N)c2c(=O)n1CC#Cc1ccc(Cl)cc1-c1ccnc2c(C(=O)O)csc12` [compound 1901], under setting [1], the IC50 is 35.7 nM. Still for that read-out and setting: to `Cc1nc2cnc(N3CCN(CC(C(F)(F)F)C(F)(F)F)CC3)c(C#N)c2c(=O)n1CCOc1ccc(Cl)cc1-c1ccnc2c(C(=O)O)csc12` [compound 1359] belongs 39.7 nM.

The values above are taken from patent publication US11286268B1, “EIF4E-inhibiting compounds and methods” (EFFECTOR THERAPEUTICS, INC., priority 2019, dated 2022).
